According to patent US7652047B2, “Phenylamino isothiazole carboxamidines as MEK inhibitors” (Ardea Biosciences, Inc., priority 2005, dated 2010):
Read-outs that look alike come from different tables or passages of the source.

Key:
[1] = system: phosphorylated ERK in MDA-MB-231 breast cancer cells; assay: Western blotting for phosphorylated ERK in EGF-stimulated MDA-MB-231 cells; assay type: cell-based; conditions: Homo sapiens, Table 4, compound 30 min, 100 ng/ml EGF 5 min
Description: Effects of compounds in the cell were determined by Western blotting for phosphorylated ERK. MDA-MB-231 breast cancer cells were plated in a 48 well plate at 20,000 cells per well and grown in a 37° humidified CO2 incubator. The following day, the growth media (DMEM+10% fetal bovine serum) was removed and replaced with starve media (DMEM+0.1% fetal bovine serum). Cells were incubated in the starve media for sixteen hours and then treated with a range of compound concentrations for thirty minutes. After incubation with compound, cells were stimulated with 100 ng/ml EGF for five minutes. The cells were then lysed and analyzed by Western blot using a monoclonal antibody raised to phosphorylated ERK. The signal was amplified using a secondary antibody conjugated to a near-IR dye and detected on a Licor Odyssey scanner.

[2] = target: T1, MEK1^CA (human GST-MEK1, constitutively active, Ser218Asp and Ser222Asp) (Homo sapiens, UniProt Q02750, S218D/S222D); assay: MEK1 enzymatic activity assay (MEK1^CA / ERK2 / MBP, [γ-33P]ATP incorporation); assay type: biochemical
T1 construct: GST; made in house; host or cells: Escherichia coli
In short: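 Cascade assay: 25 µl reactions with 0.002 nmol E. coli-expressed GST-MEK1 S218D/S222D, 0.02 nmol His-tagged mouse ERK2, 0.25 nmol MBP, 0.25 nmol unlabeled ATP and 0.1 µCi [γ-33P]ATP. Compound preincubated 30 min at ambient temperature with MEK1/ERK2; stopped with TCA, 33P-labelled protein filter-captured and scintillation-counted.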

[3] = Table 4, R' is (CH2)1 or 2-G, read-out: IC50
[4] = Table 1, compounds of formula I, read-out: Avg IC50
[5] = Table 2, Ar1-A contains an amido or indolo group, read-out: IC 50

T1 sequence (Q02750 whole entry S218D/S222D): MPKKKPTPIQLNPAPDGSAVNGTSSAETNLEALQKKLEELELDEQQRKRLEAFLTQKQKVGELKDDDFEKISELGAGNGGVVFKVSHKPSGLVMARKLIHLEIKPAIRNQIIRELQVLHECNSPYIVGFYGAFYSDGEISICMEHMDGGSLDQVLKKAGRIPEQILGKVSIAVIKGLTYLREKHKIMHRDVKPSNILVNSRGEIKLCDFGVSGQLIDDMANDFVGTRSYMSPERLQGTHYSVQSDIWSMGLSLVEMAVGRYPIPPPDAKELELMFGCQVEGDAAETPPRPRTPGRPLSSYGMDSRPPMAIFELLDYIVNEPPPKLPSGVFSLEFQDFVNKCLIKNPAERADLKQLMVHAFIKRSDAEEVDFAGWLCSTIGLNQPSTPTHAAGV

Compound	IC50 [2, 4]	also measured
N=C(NCCN1CCNCC1)c1c(O)nsc1Nc1ccc(Oc2cc(Cl)ccc2Cl)cc1	–	EC50 [1]: 1 to 100 nM
CC1CN(CCNC(=N)c2c(O)nsc2Nc2ccc(Oc3cc(Cl)ccc3Cl)cc2)CC(C)O1 (stereo not drawn)	–	IC50 [2, 3]: 100 to 500 nM; EC50 [1]: 100 to 500 nM
N=C(NCCN1CCNC(=O)C1)c1c(O)nsc1Nc1ccc(Oc2cc(Cl)ccc2Cl)cc1	–	EC50 [1]: 1 to 100 nM
N=C(NCCN1CCCC1=O)c1c(O)nsc1Nc1ccc(Oc2cc(Cl)ccc2Cl)cc1	–	IC50 [2, 3]: 1 to 100 nM; EC50 [1]: 100 to 500 nM
N=C(NCC1CCCO1)c1c(O)nsc1Nc1ccc(Oc2cc(Cl)ccc2Cl)cc1 (stereo not drawn)	–	EC50 [1]: 1 to 100 nM
N=C(NCCc1ccccc1)c1c(O)nsc1Nc1ccc(Oc2ccccc2)cc1 [drawing 821]	–	IC50 [2, 3]: 100 to 500 nM; EC50 [1]: 100 to 500 nM
N=C(NCCN1CCOCC1)c1c(O)nsc1Nc1ccc(Oc2cc(Cl)ccc2Cl)cc1	–	EC50 [1]: 1 to 100 nM
CN1CCN(CCNC(=N)c2c(O)nsc2Nc2ccc(Oc3cc(Cl)ccc3Cl)cc2)CC1	–	EC50 [1]: 100 to 500 nM
CC(C)(CO)CNC(=N)c1c(O)nsc1Nc1ccc(Oc2ccccc2)cc1 [compound 143]	1 to 100 nM	–
N=C(NCC(O)CO)c1c(O)nsc1Nc1ccc(Cl)cc1 (stereo not drawn) [compound 101]	100 to 500 nM	–
CCCCC(CO)NC(=N)c1c(O)nsc1Nc1ccc(Oc2ccccc2)cc1 (stereo not drawn) [compound 157]	100 to 500 nM	–
CC(C)NC(=N)c1c(O)nsc1Nc1ccc(Oc2cccc(C(F)(F)F)c2)nc1 [compound 430]	100 to 500 nM	–
CC(C)NC(=N)c1c(O)nsc1Nc1ccc(Oc2ccc(C(F)(F)F)cc2)cc1 [compound 391]	100 to 500 nM	–
N=C(NCC1CCCCC1)c1c(O)nsc1Nc1cc(C(F)(F)F)cc(C(F)(F)F)c1 [compound 66]	> 500 nM	–
CC(C)NC(=N)c1c(O)nsc1Nc1ccc(Oc2cccnc2)c(Cl)c1 [compound 336]	> 500 nM	–
N=C(NCc1cccc2ccccc12)c1c(O)nsc1Nc1ccccc1 [compound 87]	> 500 nM	–
N=C(NCCO)c1c(O)nsc1Nc1ccc(C(=O)Nc2ccccc2)cc1 [E-8]	–	IC50 [2, 5]: 200 to 1000 nM
Cc1ccccc1Oc1ccc(Nc2snc(O)c2C(=N)NC(C)CO)cc1C (stereo not drawn) [compound 325]	> 500 nM	–
Cc1cc(Oc2cc(Cl)ccc2Cl)ccc1Nc1snc(O)c1C(=N)NC(C)CO (stereo not drawn) [compound 461]	1 to 100 nM	–
CC(CO)NC(=N)c1c(O)nsc1Nc1ccc(Oc2ccc(C(F)(F)F)cc2)c(F)c1 (stereo not drawn) [compound 378]	100 to 500 nM	–

Compound	IC50 [2, 4]	also measured
CC(C)(C)CCNC(=N)c1c(O)nsc1Nc1ccc(Oc2ccccc2)cc1 [compound 42]	1 to 100 nM	–
CC(CO)NC(=N)c1c(O)nsc1Nc1ccc(Oc2cccc(C(C)(C)C)c2)cc1 (stereo not drawn) [compound 284]	100 to 500 nM	–
Cc1cc(C#N)cc(C)c1Oc1ccc(Nc2snc(O)c2C(=N)NC(C)C)cc1 [compound 262]	> 500 nM	–
CC(CO)NC(=N)c1c(O)nsc1Nc1ccc(Oc2ccccc2)nc1 (stereo not drawn) [compound 258]	> 500 nM	–
CC[C@H](CO)NC(=N)c1c(O)nsc1Nc1ccc(Oc2ccccc2)cc1 [compound 177]	100 to 500 nM	–
N=C(NCCCCO)c1c(O)nsc1Nc1ccc(C(=O)N2CCc3ccccc32)cc1 [E-14]	–	IC50 [2, 5]: > 1000 nM
CC(C)NC(=N)c1c(O)nsc1Nc1ccc(Oc2ccc(Cl)cc2)cc1 [compound 183]	1 to 100 nM	–
N=C(NCC1CCCO1)c1c(O)nsc1Nc1ccc(Oc2cc(F)cc(F)c2)cc1 (stereo not drawn) [compound 414]	1 to 100 nM	–
Cc1cc(Nc2snc(O)c2C(=N)NC(C)CO)ccc1Oc1ccccc1 (stereo not drawn) [compound 324]	100 to 500 nM	–
CCC[C@H]1CC[C@H](c2ccc(Nc3snc(O)c3C(=N)NCC(C)(C)CO)cc2)CC1 [compound 165]	100 to 500 nM	–
CC(CO)NC(=N)c1c(O)nsc1Nc1ccc(OC2CCCCC2)cc1 (stereo not drawn) [compound 220]	> 500 nM	–
N=C(NN1CCCCC1)c1c(O)nsc1Nc1ccc(Oc2cc(Cl)ccc2Cl)cc1 [compound 449]	1 to 100 nM	–
CC[C@H](CO)NC(=N)c1c(O)nsc1Nc1ccc(Oc2cc(F)cc(F)c2)cc1C [compound 469]	1 to 100 nM	–
Oc1nsc(Nc2ccc(Oc3ccccc3)cc2)c1-c1nnn[nH]1 [compound 136]	> 500 nM	–
N=C(NCC(O)CO)c1c(O)nsc1Nc1ccc([C@H]2CC[C@H](O)CC2)cc1 (stereo partly drawn) [compound 196]	> 500 nM	–
CCC(CO)NC(=N)c1c(O)nsc1Nc1ccc(Oc2cccc(C(F)(F)F)c2)cc1C (stereo not drawn) [compound 473]	1 to 100 nM	–
CC(C)NC(=N)c1c(O)nsc1Nc1ccc(Oc2cc(C(F)(F)F)ccc2F)cc1 [compound 355]	1 to 100 nM	–
CCOCCCNC(=N)c1c(O)nsc1Nc1ccc(Oc2ccccc2)cc1 [compound 49]	1 to 100 nM	–
CC(CO)NC(=N)c1c(O)nsc1Nc1ccc(Oc2cccc(Br)c2)cc1 (stereo not drawn) [compound 251]	1 to 100 nM	–
Cc1cc(C)cc(Oc2ccc(Nc3snc(O)c3C(=N)NC(C)CO)cc2)c1 (stereo not drawn) [compound 268]	100 to 500 nM	–

Compound	IC50 [2, 4]	also measured
CCC[C@H]1CC[C@H](c2ccc(Nc3snc(O)c3C(=N)NCCO)cc2)CC1 [compound 161]	> 500 nM	–
CC(C)NC(=N)c1c(O)nsc1Nc1ccc(Oc2ccc(C(F)(F)F)cc2)c(F)c1 [compound 390]	100 to 500 nM	–
N=C(NCCN1CCOCC1)c1c(O)nsc1Nc1ccc(Oc2ccc(Cl)cc2Cl)cc1 [compound 426]	1 to 100 nM	–
N=C(NCC1CCCCC1)c1c(O)nsc1Nc1ccc(S(=O)(=O)Nc2ccccc2)cc1 [E-2]	–	IC50 [2, 5]: > 1000 nM
CC(=O)NC(=N)c1c(O)nsc1Nc1ccc(Oc2ccccc2)cc1 [compound 150]	> 500 nM	–
N=C(NCCN1CCOCC1)c1c(O)nsc1Nc1ccc(Oc2cc(F)cc(F)c2)cc1 [drawing 830]	–	IC50 [2, 3]: 100 to 500 nM
CC(C)NC(=N)c1c(O)nsc1Nc1ccc(Oc2ccccc2Br)cc1 [compound 293]	1 to 100 nM	–
Cc1ccc(Oc2ccc(Nc3snc(O)c3C(=N)NC(C)C)cc2)cc1 [compound 246]	1 to 100 nM	–
Cc1ccc(Oc2ccc(Nc3snc(O)c3C(=N)NCC3CCCCC3)cc2)cn1 [drawing 824]	–	IC50 [2, 3]: 100 to 500 nM
COc1ccc(Nc2snc(O)c2C(=N)NCC2CCCCC2)cn1 [compound 77]	1 to 100 nM	–
Cc1cc(Oc2ccc(F)cc2Cl)ccc1Nc1snc(O)c1C(=N)NC(C)C [compound 401]	1 to 100 nM	–
CC(C)NC(=N)c1c(O)nsc1Nc1ccc(Oc2ccccc2Cl)cc1 [compound 212]	100 to 500 nM	–
N=C(NCCc1cnc[nH]1)c1c(O)nsc1Nc1ccc(Oc2cc(Cl)ccc2Cl)cc1	–	IC50 [2, 3]: 1 to 100 nM; EC50 [1]: 1 to 100 nM
N=C(NCC(O)CO)c1c(O)nsc1Nc1ccc(Oc2ccccc2)cc1 (stereo not drawn) [compound 40]	1 to 100 nM	–
CC(C)NC(=N)c1c(O)nsc1Nc1ccc(Oc2ccccc2Cl)c(F)c1 [compound 277]	1 to 100 nM	–
CCOC(=O)c1cccc(Nc2snc(O)c2C(=N)NCC(C)O)c1 (stereo not drawn) [compound 496]	> 500 nM	–
CC(C)NC(=N)c1c(O)nsc1Nc1ccc(Oc2c(F)ccc(F)c2Cl)cc1 [compound 318]	100 to 500 nM	–
N=C(NCC1CCCCC1)c1c(O)nsc1Nc1ccc(/C=C/c2ccccc2)cc1 [compound 133]	> 500 nM	–
COC(=O)c1cccc(Nc2snc(O)c2C(=N)NCC(O)O)c1C [compound 499]	100 to 500 nM	–
